Results from ChEMBL document CHEMBL1201862, “PubChem BioAssay data set” (2004).
Values belong to the compound of their own block, whether it stands above or below them. Active and inactive are the calls of the source.

Legend:
[1] = molecular target: T1, Short transient receptor potential channel 4 (Mus musculus, UniProt Q9QUQ5); assay: calcium entry via TRPC4 opening agents – cell-based, HEK293 TRPC4/mu-opioid, Fluo-4 calcium, dose response (AID 434937); assay type: functional
T1 sequence (Q9QUQ5 whole entry): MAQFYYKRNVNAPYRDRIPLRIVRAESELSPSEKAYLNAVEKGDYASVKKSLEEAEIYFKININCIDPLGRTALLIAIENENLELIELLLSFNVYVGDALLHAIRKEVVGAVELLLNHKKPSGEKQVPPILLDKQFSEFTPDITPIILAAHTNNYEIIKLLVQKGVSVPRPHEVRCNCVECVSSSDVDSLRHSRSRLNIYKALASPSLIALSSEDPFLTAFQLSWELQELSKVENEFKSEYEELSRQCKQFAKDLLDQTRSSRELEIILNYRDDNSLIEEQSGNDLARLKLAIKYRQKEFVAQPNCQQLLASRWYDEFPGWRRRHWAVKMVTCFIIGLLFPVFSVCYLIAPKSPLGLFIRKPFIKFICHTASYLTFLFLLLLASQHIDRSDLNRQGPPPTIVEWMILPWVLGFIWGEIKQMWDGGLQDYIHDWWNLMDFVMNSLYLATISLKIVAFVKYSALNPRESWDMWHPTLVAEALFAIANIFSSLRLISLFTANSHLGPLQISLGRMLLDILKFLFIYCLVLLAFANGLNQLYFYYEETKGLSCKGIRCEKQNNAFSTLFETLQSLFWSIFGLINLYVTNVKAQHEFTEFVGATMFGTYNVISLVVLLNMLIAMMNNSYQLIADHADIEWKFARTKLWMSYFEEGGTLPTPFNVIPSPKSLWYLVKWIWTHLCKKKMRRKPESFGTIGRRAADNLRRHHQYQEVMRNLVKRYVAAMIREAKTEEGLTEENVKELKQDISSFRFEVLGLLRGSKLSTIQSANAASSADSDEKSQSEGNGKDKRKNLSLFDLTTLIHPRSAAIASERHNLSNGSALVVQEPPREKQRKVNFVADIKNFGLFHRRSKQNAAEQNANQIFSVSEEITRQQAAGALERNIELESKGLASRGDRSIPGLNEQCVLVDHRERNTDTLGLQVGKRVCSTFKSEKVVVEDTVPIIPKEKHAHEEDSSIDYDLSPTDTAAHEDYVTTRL

[2] = molecular target: T2, Type-1 angiotensin II receptor (Homo sapiens, UniProt P30556); assay: agonist activity at AGTR1 – cell-based, uHTS hits, selectivity assay for APJ receptor agonist project, dose response (AID 488865); assay type: functional;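 further: beta-arrestin recruitment to AT1 measured by enzyme fragment complementation luminescence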
T2 sequence (P30556 whole entry): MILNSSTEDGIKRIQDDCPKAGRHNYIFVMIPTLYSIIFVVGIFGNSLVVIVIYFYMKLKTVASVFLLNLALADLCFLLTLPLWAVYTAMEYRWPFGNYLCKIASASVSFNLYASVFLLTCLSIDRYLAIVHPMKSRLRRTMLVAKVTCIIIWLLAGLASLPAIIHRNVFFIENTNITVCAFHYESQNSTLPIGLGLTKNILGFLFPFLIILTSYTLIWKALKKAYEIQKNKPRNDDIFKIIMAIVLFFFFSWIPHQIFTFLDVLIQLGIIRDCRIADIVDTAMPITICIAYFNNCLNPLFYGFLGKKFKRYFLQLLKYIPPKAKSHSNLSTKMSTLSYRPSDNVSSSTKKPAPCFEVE

[3] = molecular target: T3, Carboxy-terminal domain RNA polymerase II polypeptide A small phosphatase 1 (Homo sapiens, UniProt Q9GZU7); assay: CTDSP1 inhibitors, concentration-response, biochemical, absorbance readout, ultra-high-throughput screen actives (AID 540297); assay type: functional
T3 sequence (Q9GZU7 whole entry): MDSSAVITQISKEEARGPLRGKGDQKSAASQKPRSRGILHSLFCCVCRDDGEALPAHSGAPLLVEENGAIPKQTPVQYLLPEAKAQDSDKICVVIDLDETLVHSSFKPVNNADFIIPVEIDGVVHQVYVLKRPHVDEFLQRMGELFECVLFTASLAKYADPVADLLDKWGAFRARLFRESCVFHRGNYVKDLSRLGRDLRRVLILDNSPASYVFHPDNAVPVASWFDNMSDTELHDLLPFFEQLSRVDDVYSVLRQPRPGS

[4] = molecular target: DNA dC->dU-editing enzyme APOBEC-3G (Homo sapiens, UniProt Q9HC16); assay type: functional;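 further: Dose-response counterscreen measuring inhibition of APOBEC3G DNA deaminase activity, run while confirming APOBEC3A inhibitors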
[5] = molecular target: DNA dC->dU-editing enzyme APOBEC-3A (Homo sapiens, UniProt P31941); assay: Dose Response confirmation of small molecule APOBEC3A DNA Deaminase Inhibitors via a fluorescence-based single-stranded DNA deaminase assay. [Related pubchem assays (depositor defined):AID493011, AID493024]; assay type: functional
[6] = molecular target: Peroxisome proliferator-activated receptor gamma/Nuclear receptor coactivator 1 (Homo sapiens, UniProt P37231); assay: TR-FRET dose response biochemical High Throughput Screening assay for agonists of the steroid receptor coactivator 1 (SRC-1) recruitment by the peroxisome proliferator-activated receptor gamma (PPAR gamma): non-selective agonists. [Related pubchem assays (depositor defined):AID1300, AID1808, AID504735, AID631]; assay type: protein assay
[7] = molecular target: Peroxisome proliferator-activated receptor gamma/Nuclear receptor coactivator 2 (Homo sapiens, UniProt P37231); assay: (§1) TR-FRET dose response biochemical High Throughput Screening assay for agonists of the steroid receptor coactivator 2 (SRC-2) recruitment by the peroxisome proliferator-activated receptor gamma (PPAR gamma): non-selective agonists. [Related pubchem assays: 1297, 1032 ]; assay type: functional
[8] = fluconazole-exposed Candida albicans growth modulators – fluorescence, retest, confirmation (AID 2467); assay type: functional, cell-based
[9] = molecular target: Peroxisome proliferator-activated receptor gamma/Nuclear receptor coactivator 3 (Homo sapiens, UniProt P37231); assay: as §1, with “3 (SRC-3)” for “2 (SRC-2)”, “1301 (Confirmation screen.), 1048 (Primary screen.)]” for “1297, 1032 ]”; assay type: functional
[10] = NIH-3T3 fibroblast cytotoxicity, dose response, cytotoxicity control, cell-based, fluorescence, Alamar Blue, secondary assay (AID 2327); assay type: functional;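 further: NIH-3T3 mouse fibroblasts cultured with fluconazole at 8 µg/mL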
[11] = molecular target: T4, Glutathione-S-transferase (Schistosoma japonicum, UniProt Q26513); assay: GST-antibody interaction or FRET quenching – biochemical, TR-FRET, artefact control for Vif-APOBEC3G degradation inhibitor project, dose response (AID 1117362); assay type: functional
T4 sequence (Q26513 whole entry): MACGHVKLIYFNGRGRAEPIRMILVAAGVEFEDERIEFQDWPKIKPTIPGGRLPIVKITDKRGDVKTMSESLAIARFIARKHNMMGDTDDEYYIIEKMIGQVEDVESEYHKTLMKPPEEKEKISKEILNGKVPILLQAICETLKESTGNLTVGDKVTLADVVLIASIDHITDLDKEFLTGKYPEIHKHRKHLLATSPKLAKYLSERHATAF

[12] = molecular target: T5, Alkaline phosphatase, tissue-nonspecific isozyme (Homo sapiens, UniProt P05186); assay: potency against alkaline phosphatase TNAP – biochemical, luminescent, dose response, SAR follow-up (AID 1056)
T5 sequence (P05186 whole entry): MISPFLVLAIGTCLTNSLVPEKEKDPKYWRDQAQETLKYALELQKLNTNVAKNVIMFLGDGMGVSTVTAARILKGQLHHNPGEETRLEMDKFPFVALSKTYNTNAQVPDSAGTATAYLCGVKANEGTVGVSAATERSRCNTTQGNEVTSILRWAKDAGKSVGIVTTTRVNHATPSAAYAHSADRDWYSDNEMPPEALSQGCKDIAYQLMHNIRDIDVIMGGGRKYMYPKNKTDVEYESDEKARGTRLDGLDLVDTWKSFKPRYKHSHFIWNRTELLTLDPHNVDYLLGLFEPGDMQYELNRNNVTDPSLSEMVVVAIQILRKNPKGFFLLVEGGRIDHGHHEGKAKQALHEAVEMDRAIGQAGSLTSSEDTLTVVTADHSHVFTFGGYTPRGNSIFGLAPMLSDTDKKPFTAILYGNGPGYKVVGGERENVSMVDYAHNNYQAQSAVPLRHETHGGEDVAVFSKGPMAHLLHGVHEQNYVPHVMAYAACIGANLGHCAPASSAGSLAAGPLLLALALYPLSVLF

[13] = molecular target: Alkaline phosphatase, placental type (Homo sapiens, UniProt P05187); assay: human placental alkaline phosphatase inhibition – biochemical, luminescence, confirmation (AID 1512); assay type: functional
[14] = molecular target: T6, Ubiquitin-conjugating enzyme E2 N (Homo sapiens, UniProt P61088); assay type: functional
T6 sequence (P61088 whole entry): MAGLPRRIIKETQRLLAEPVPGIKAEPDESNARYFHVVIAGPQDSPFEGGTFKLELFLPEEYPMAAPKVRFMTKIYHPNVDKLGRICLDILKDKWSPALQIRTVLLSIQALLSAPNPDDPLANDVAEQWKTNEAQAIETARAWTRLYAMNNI

[15] = molecular target: T7, Bcl-2-related protein A1 (Mus musculus, UniProt Q07440); assay type: functional;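 further: confirmatory dose–response counterscreen on Bfl-1, used to check hits from a UBC13 polyubiquitin inhibitor campaign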
T7 sequence (Q07440 whole entry): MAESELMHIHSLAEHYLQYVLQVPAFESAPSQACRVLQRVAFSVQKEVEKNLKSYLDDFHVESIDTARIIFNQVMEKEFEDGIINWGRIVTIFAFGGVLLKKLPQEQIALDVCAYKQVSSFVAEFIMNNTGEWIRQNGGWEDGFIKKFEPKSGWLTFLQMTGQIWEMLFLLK

[16] = molecular target: T6, Ubiquitin-conjugating enzyme E2 N; assay type: functional; remark: listed apart in the source

DNA dC->dU-editing enzyme APOBEC-3A, sequence (P31941 whole entry): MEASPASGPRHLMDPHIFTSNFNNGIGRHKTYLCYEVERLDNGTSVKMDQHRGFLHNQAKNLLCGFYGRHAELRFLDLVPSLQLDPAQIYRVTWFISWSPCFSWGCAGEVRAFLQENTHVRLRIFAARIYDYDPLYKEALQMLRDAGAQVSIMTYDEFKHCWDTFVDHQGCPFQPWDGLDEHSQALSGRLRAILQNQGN
Peroxisome proliferator-activated receptor gamma/Nuclear receptor coactivator 1, sequence (P37231 whole entry): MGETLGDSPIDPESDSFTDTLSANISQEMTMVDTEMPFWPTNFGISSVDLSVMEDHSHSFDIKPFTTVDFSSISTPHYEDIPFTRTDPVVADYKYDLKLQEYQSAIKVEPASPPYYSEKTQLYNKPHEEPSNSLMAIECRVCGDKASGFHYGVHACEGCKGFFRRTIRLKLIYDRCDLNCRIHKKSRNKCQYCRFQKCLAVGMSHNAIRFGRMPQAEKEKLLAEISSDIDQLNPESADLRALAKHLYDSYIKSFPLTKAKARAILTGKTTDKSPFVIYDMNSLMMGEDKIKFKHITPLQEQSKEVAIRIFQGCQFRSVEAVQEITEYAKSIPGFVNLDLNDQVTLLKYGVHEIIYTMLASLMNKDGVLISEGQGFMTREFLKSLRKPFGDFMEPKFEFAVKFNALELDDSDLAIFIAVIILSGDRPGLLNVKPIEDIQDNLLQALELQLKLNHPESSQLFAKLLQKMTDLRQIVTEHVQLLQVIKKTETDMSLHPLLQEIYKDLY
Peroxisome proliferator-activated receptor gamma/Nuclear receptor coactivator 1, sequence (Q15788 whole entry, further chain): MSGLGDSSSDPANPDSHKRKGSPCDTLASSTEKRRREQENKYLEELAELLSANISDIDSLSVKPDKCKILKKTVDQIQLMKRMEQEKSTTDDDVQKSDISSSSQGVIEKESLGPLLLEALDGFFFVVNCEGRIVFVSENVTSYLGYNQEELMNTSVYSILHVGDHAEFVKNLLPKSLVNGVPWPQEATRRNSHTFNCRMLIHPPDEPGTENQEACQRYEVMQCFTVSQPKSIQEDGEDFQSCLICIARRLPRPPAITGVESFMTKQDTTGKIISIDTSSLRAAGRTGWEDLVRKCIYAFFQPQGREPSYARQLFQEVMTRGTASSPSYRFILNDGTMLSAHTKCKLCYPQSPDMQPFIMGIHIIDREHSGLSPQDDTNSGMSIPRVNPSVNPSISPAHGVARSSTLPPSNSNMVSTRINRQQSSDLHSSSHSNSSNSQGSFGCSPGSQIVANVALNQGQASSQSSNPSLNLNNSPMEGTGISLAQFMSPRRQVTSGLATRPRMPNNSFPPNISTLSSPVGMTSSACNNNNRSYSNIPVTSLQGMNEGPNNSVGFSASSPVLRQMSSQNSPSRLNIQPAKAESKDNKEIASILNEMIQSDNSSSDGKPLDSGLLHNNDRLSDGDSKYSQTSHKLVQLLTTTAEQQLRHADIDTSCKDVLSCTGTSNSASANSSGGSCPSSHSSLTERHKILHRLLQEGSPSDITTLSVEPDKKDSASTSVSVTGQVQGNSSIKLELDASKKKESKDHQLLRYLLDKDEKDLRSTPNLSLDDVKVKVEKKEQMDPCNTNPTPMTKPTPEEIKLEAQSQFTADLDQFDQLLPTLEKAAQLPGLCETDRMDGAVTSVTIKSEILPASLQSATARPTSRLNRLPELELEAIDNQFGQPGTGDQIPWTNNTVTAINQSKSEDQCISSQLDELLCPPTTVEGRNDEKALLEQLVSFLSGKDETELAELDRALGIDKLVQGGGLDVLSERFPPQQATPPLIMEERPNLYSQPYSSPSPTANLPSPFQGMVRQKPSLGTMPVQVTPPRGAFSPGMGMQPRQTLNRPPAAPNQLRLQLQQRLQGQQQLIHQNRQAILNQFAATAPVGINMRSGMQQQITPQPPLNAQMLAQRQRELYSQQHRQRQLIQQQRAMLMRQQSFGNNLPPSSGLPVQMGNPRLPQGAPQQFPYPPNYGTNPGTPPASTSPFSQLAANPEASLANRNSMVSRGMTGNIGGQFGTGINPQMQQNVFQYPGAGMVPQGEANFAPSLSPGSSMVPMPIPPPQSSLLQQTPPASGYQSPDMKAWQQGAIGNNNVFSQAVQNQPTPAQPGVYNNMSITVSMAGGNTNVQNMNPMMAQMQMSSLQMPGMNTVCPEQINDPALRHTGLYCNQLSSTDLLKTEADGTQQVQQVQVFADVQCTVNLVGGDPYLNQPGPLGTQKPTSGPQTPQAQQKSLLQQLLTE
Peroxisome proliferator-activated receptor gamma/Nuclear receptor coactivator 2, sequence (P37231 whole entry): as the sequence (P37231 whole entry) above
Peroxisome proliferator-activated receptor gamma/Nuclear receptor coactivator 2, sequence (Q15596 whole entry, further chain): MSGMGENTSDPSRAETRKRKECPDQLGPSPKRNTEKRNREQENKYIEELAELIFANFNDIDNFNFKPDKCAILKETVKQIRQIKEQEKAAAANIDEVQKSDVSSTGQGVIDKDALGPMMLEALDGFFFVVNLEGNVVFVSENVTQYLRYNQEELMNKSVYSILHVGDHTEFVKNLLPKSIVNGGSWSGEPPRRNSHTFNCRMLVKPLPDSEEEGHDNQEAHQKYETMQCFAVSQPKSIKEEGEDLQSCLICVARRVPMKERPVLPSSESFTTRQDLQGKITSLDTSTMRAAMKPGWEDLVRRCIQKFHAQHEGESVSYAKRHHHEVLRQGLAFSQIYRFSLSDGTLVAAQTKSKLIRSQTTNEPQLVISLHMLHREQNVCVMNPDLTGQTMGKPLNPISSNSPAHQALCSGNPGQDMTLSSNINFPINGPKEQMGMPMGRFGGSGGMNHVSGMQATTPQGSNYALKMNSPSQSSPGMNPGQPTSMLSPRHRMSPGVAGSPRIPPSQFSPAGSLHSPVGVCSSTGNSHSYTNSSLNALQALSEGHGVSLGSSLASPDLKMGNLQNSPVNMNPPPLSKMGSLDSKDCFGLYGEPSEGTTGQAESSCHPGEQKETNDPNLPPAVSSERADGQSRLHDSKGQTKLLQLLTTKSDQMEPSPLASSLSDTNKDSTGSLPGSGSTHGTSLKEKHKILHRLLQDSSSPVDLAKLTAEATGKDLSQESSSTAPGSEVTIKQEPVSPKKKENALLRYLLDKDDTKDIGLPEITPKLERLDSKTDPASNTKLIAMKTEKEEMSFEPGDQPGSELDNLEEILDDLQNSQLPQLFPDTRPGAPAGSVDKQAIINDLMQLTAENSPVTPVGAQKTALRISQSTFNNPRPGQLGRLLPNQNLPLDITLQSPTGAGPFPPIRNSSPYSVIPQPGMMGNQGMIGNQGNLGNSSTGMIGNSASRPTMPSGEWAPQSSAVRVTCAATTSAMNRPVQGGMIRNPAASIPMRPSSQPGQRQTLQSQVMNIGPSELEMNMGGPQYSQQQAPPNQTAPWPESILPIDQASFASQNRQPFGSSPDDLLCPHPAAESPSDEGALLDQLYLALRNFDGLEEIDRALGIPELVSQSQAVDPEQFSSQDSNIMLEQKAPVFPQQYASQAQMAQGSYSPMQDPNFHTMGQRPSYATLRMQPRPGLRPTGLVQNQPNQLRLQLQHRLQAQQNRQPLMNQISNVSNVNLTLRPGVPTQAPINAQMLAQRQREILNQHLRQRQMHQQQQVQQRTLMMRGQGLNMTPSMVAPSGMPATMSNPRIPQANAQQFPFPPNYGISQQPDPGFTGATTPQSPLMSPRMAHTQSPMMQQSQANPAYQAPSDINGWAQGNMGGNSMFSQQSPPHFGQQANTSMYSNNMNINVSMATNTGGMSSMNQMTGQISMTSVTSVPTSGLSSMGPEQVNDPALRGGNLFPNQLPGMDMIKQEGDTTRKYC
DNA dC->dU-editing enzyme APOBEC-3G, sequence (Q9HC16 whole entry): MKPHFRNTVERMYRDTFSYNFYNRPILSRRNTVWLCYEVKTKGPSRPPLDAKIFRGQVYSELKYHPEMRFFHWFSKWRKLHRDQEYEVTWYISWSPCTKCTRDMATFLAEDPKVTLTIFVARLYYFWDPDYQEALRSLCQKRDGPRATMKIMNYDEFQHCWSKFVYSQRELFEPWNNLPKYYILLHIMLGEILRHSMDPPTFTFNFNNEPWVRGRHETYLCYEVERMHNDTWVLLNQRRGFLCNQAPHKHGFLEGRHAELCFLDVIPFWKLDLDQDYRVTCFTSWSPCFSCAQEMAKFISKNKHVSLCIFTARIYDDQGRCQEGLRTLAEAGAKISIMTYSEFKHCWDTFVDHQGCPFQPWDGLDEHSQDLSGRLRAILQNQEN
Alkaline phosphatase, placental type, sequence (P05187 whole entry): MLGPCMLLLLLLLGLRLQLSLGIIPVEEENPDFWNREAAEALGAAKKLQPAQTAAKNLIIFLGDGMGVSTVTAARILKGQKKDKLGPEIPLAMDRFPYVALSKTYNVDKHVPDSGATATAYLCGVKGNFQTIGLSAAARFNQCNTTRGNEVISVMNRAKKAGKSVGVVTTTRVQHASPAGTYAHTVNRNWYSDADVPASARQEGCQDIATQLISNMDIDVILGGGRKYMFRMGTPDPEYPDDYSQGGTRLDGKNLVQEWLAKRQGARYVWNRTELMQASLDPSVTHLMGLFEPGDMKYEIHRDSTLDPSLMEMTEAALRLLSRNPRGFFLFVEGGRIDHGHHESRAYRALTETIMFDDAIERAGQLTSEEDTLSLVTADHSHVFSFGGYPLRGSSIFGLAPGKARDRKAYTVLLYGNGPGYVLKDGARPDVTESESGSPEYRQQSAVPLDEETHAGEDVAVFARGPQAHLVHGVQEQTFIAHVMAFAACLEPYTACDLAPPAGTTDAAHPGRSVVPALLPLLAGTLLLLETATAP

SMILES: COc1cc(/C=C/c2cccc[n+]2C)ccc1OCC(=O)Nc1cccc(Cl)c1
IC50 [3]: 18.9 µM (active) | IC50 [4]: 2.95 µM (active) | IC50 [5]: 2.83 µM (active)

SMILES: CCn1c(=S)[nH]c2scc(-c3cccs3)c2c1=O
EC50 [6]: 8.82 µM (active) | EC50 [7]: 11.1 µM (not active) | EC50 [8]: 1.23 µM (active) | EC50 [9]: > 79.4 µM (not active) | EC50 [10]: > 160 µM (inactive)

SMILES: Cn1cc[n+](C)c1P(=S)(c1ccccc1)c1ccccc1
EC50 [1]: 0.237 µM (active)

SMILES: Cc1cc(-c2ccc(Br)s2)nc(-n2cccc2)n1
EC50 [6]: > 79.4 µM (inactive) | EC50 [7]: 19.3 µM (not active) | EC50 [9]: > 79.4 µM (not active)

SMILES: O=C(NCc1ccccc1CN1CCCCC1)c1ccccc1N1CCCC1=O
IC50 [4]: 4.58 µM (active) | IC50 [5]: 4.48 µM (active)

SMILES: Cc1ccc(C)n1-c1ccc(-c2nnc3n2CCCCC3)s1
EC50 [6]: > 79.4 µM (inactive) | EC50 [7]: 38.7 µM (not active) | EC50 [9]: > 79.4 µM (not active) | IC50 [11]: 86.7 µM (active)

SMILES: CCn1c(SCC(=O)c2ccc(OC)cc2)nnc1-c1ccccc1
IC50 [12]: > 100 µM (inactive) | IC50 [13]: > 100 µM (inactive)

SMILES: Cc1ccc(NC(=O)C2CCCN2C(=O)c2cccs2)c(C)c1 (stereo not drawn)
IC50 [4]: 6.6 µM (active) | IC50 [5]: 3.76 µM (active)

Now from value to compound:

EC50 [1]: 4.73 µM (active)
SMILES: O=C(CC1C(=O)NCCN1Cc1cccc(Oc2ccccc2)c1)NCCc1ccccn1 (stereo not drawn)

EC50 [2]: > 100 µM (inactive)
SMILES: CCC(c1nnnn1CCOC)N(Cc1ccc(C)cc1)Cc1cc2cc(OC)ccc2[nH]c1=O (stereo not drawn)

EC50 [2]: > 100 µM (inactive)
SMILES: Cc1cccc2sc(N(CCCN(C)C)C(=O)c3ccc(S(=O)(=O)N4CCc5ccccc5C4)cc3)nc12

EC50 [2]: > 100 µM (inactive)
SMILES: CCOc1cc2[nH]c(=S)n(CCN3CCCCC3CC)c(=O)c2cc1OCC (stereo not drawn)

IC50 [14]: 9.23 µM (active) | IC50 [15]: > 20 µM (inactive) | IC50 [16]: 10.5 µM (active)
SMILES: CCOc1ccc(NS(=O)(=O)c2cc(C(=O)NCCCN3CCOCC3)ccc2C)cc1

IC50 [12]: > 100 µM (inactive) | IC50 [13]: > 100 µM (inactive)
SMILES: COc1ccc(F)cc1S(=O)(=O)Nc1ccc2ccccc2c1

IC50 [12]: 3.34 µM (active) | IC50 [13]: 14.8 µM (active)
SMILES: COc1ccccc1-c1nc(SCC(=O)c2ccc(O)c(O)c2)n[nH]1
